In US8207136B2, “Nucleoside compounds and methods of use thereof” (The Board of Trustees of the University of Illinois, priority 2005, dated 2012):

Columns and labels:
p53, p21, hdm2, survivin = test: Immunoblot of p53, p21, hdm2 and survivin levels in cancer cell lines; type: cell-based, human
Protocol: (§1) Immunoblotting was performed as described with antibodies specific for p53 (sc-126 HRP; Santa Cruz), hdm2 (sc-965; Santa Cruz), p21 (556431; BD Pharmingen), Sp1 (sc-59; Santa Cruz), survivin (sc-10811; Santa Cruz), phospho RNA polymerase II (4735; Cell Signaling), total RNA polymerase II (8WG16; a gift from Dr. Schlegel, University of Illinois at Chicago), α-tubulin (T9026; Sigma), cleaved caspase-3 (9664; Cell Signaling), caspase-9 (9502; Cell Signaling) and β-actin (A5441; Sigma) antibodies.
In order to find small molecule transcriptional inhibitors of p21, we generated LIM1215 colon cancer cells, carrying lacZ under the control of p21 promoter, as a screening system for testing ˜2000 structurally diverse compounds (Diversity Set) obtained from National Cancer Institute (NCI). […] To determine if these effects mediated by ARC were dose-dependent, we treated HCT-116 colon carcinoma cells with different concentrations of ARC.
In order to evaluate the extent to which the ARC-mediated repression of p21, hdm2 and survivin are p53-dependent, a pair of isogenic colon cancer cell lines was employed differing only in their p53 status—HCT-116 wild-type and HCT-116-p53^−/− cells (gift from Dr. Bert Vogelstein).

[1] = test system: RNA polymerase II transcription; test: Nuclear run-on assay, nuclei from treated HCT-116 cells; type: cell-based, human; details: HCT-116 cells treated 2 hours with 1 mM
Protocol: Run-on assays with isolated nuclei were performed as described. Briefly, cells treated with the indicated agents were lysed with hypotonic buffer (10 mM Tris-HCl pH 7.4, 10 mM NaCl and 35 mM MgCl2) and nuclei collected by centrifugation and resuspended in nuclear storage buffer (50 mM HEPES pH 8.0, 5 mM MgCl2, 0.5 mM DTT, 1 mg/ml BSA and 25% (v/v) glycerol) at about 5×10^8 nuclei/ml and stored at −80° C. Transcription reactions were performed in 200 μl volume consisting of 1×10^7 nuclei in the presence of 0.12 M KCl, 7 mM Mg(Ac)2, 25 μCi of [^32P]GTP, 500 μM ATP, UTP and CTP at 30° C. Samples were collected at various time points (18 μl/time point—0, 5, 10, 20 and 30 min) and the reaction terminated by the addition of 57 μl of Sarkosyl solution (1% Sarkosyl, 0.1 M Tris pH 8.0, 0.1 M NaCl, 10 mM EDTA and 200 μg/ml tRNA). The stopped reactions were transferred to Whatman DE81 paper, and washed four times with wash buffer (5% K2HPO4 and 0.3% Na4P2O7) for 10 min, followed by a 5-min water wash. Then the paper was briefly rinsed with 95% ethanol and allowed to dry completely. Radiation was quantitated using a liquid scintillation counter.
Some transcriptional inhibitors such as DRB and flavopiridol repress p21 and hdm2 while increasing p53 levels. […] To evaluate this activity, HCT-116 cells were treated with one of DMSO (control), ARC or DRB, and nuclei were isolated. These nuclei were assayed for rate of transcription either in the presence or absence of α-amanitin using the nuclear run-on assay. […] If ARC inhibits polymerase I and III transcription, the rate of transcription should be substantially lower in the ARC+α-amanitin (FIG. 2A; curve 5) when compared with DMSO+α-amanitin (FIG. 2A; curve 4). However both of these rates of transcription were similar, implying that ARC might preferentially affect only RNA polymerase II transcription.

[2] = test system: phospho-RNA polymerase II; test: Immunoblot of phospho-RNA polymerase II in HCT-116 cells; type: cell-based, human; details: 3 hours
Protocol: as §1
It is known that DRB and flavopiridol inhibit transcription by blocking the kinase activity of P-TEFb, which in turn leads to decreased phosphorylation of RNA polymerase II C-terminal domain (CTD). To determine if ARC operates by a similar mechanism, a kinase assay was performed with purified P-TEFb using GST-CTD (GST tagged C-terminal domain of RNA polymerase II) as the substrate. […] To evaluate this effect in vivo, HCT-116 cells were treated with ARC for 3 hours and analyzed levels of phospho-RNA polymerase II by immunoblotting. While the total amount of RNA polymerase II remained unchanged, phosphorylation of the RNA polymerase II CTD decreased upon ARC treatment (FIG. 2D), consistent with the in vitro kinase assay.

[3] = test system: LIM1215 colon cancer, AGS gastric cancer and HepG2 liver cancer cells; test: Cleaved caspase-3 immunoblot in cancer cell lines of different origin; type: cell-based, human; details: 48 hours
Protocol: as §1

HUVECs [4] = test: Motility assay with VEGF as chemoattractant; type: cell-based; details: Homo sapiens, HUVEC; 24 hours pretreatment, average from two trials; read-out: IC50, cell motility
Protocol: (§2) Different angiogenesis assays such as cord formation assay, motility assay and proliferation inhibition assay were performed at the developmental therapeutics program (DTP) branch of NCI (NCI/DTP) as described. HUVECs were used for all the assays. Taxol and TNP-470 were used as positive control for the assays.
For motility assay, HUVECs were pretreated for 24 hours with different concentrations ARC and used in the assay with vascular endothelial growth factor (VEGF) as a chemoattractant.

HUVECs [5] = test: Proliferation inhibition assay; type: cell-based; details: Homo sapiens, HUVEC; 10 ng/ml VEGF, 24, 48 or 72 hours, average from two trials; read-out: IC50, HUVEC growth
Protocol: as §2
For proliferation inhibition assay, HUVECs were grown in the absence of growth factors for 24 hours and then stimulated with 10 ng/ml VEGF and were treated with either DMSO or different concentrations of ARC for 24 hours, 48 hours or 72 hours.

[6] = Preliminary toxicity studies (NCI/DTP) in mice; type: in vivo; details: as high as 200 mg/Kg, 5-day period, B6D2FI mice
Excerpt: Similarly, p21 may also act in an anti-apoptotic fashion by inducing cell-cycle arrest or by inhibiting pro-apoptotic molecules such as procaspase-3 and apoptosis signal-regulating kinasel (ASK1). […] The fact that ARC represses both survivin and p21 makes a strong case for consideration of ARC as a potential anti-tumor agent. This is further supported by the observation that ARC was >10-fold more efficient in inducing apoptosis than the other nucleoside analog DRB (FIG. 5F). This is especially intriguing because, as shown herein, ARC and DRB repress global transcription to similar extent (FIG. 2A). […] Preliminary toxicity studies from NCI/DTP indicate that concentrations as high as 200 mg/Kg were non-toxic to B6D2FI mice during a 5-day period.

[7] = cancer cell lines of different origin, 10 μM, 24 hours

NNc1c(C(N)=O)c2c(N)ncnc2n1[C@@H]1O[C@H](CO)[C@@H](O)[C@H]1O [ARC, 4-amino-6-hydrazino-7-beta-D-ribofuranosyl-7H-pyrrolo[2,3-d]-pyrimidine-5-carboxamide]
p21, hdm2 and survivin levels, p53 dependence (p53, p21, hdm2, survivin; HCT-116-p53+/+ versus HCT-116-p53−/− cells): repressed irrespective of their p53 status | p53, p21 and hdm2 levels, dose dependence (p53, p21, hdm2, survivin; HCT-116 colon carcinoma cells, increasing amounts, 24 hours): increased p53 but simultaneously repressed its target genes p21 and hdm2 in a dose-dependent manner | p53 levels in nuclear extracts (p53, p21, hdm2, survivin; MCF-7 cells, ARC alone): highly induced | hdm2 levels (p53, p21, hdm2, survivin; [7]): downregulate hdm2 | p21 levels (p53, p21, hdm2, survivin; [7]): repress p21 levels | p53 levels (p53, p21, hdm2, survivin; [7]): increased p53 levels | survivin levels (p53, p21, hdm2, survivin; [7]): downregulate | rate of transcription versus control nuclei [1]: lower | rate of transcription in the presence of α-amanitin versus DMSO+α-amanitin ([1]; 2 μg/ml α-amanitin): similar | phosphorylation of the RNA polymerase II CTD in cells [2]: decreased | cleavage of caspase-3 ([3]; HepG2 with stable knock-down of p53, 20 μM): showed cleavage of caspase-3 | cleavage of caspase-3 ([3]; LIM1215, AGS and HepG2 cells, 20 μM): cleavage of caspase-3 were detected | IC50 (HUVECs [4]): ~830 nM | IC50 (HUVECs [5]): ~47 nM | toxicity [6]: non-toxic
